The record followed here is patent US5109111A, “CRF antagonists” (The Salk Institute for Biological Studies, priority 1990, dated 1992).

For the assay, the system named is secretion of ACTH stimulated by oCRF in cultured rat pituitary cells. Briefly: Blocking of oCRF-stimulated ACTH and β-endorphin secretion by cultured rat pituitary cells. Type of assay: cell-based. The settings on record: result in words. The method, then:
The effectiveness of synthetic CRF antagonists to block the secretion of ACTH and β-endorphin by cultured rat pituitary cells is measured using the procedure as generally set forth in Vale et al., Endocrinology, 91, 562 (1972).

Square brackets hold non-standard residues; d marks the D form. Peptide text beside a SMILES is read from it. Nle = CCCC[C@H](N)C(=O)O; Orn = NCCC[C@H](N)C(=O)O; Nva = CCC[C@H](N)C(=O)O

For `CCCC[C@H](NC(=O)[C@H](CCC(=O)O)NC(=O)[C@H](CC(C)C)NC(=O)[C@H](CCSC)NC(=O)[C@H](CCC(=O)O)NC(=O)[C@H](CCCNC(=N)N)NC(=O)[C@H](CC(C)C)NC(=O)[C@H](CC(C)C)NC(=O)[C@H](Cc1c[nH]cn1)NC(=O)[C@H](N)Cc1ccccc1)C(=O)N[C@@H](C)C(=O)N[C@@H](CCCCN)C(=O)N[C@@H](C)C(=O)N[C@@H](CCC(=O)O)C(=O)N[C@@H](CCC(N)=O)C(=O)N[C@@H](CCSC)C(=O)N[C@@H](C)C(=O)N[C@@H](CCC(=O)O)C(=O)N[C@@H](CCC(N)=O)C(=O)N[C@@H](C)C(=O)N[C@@H](C)C(=O)N[C@@H](CC(C)C)C(=O)N[C@@H](CC(N)=O)C(=O)N[C@@H](CCCNC(=N)N)C(=O)N[C@@H](CC(C)C)C(=O)N[C@@H](CC(C)C)C(=O)N[C@@H](CCCC)C(=O)N[C@@H](CCC(=O)O)C(=O)N[C@@H](CCC(=O)O)C(=O)N[C@@H](C)C(N)=O` [XXI, [D-Phe^12, Met^27, Nle^21,38]-AHC (12-41)] (H-[dF]HLLREMLE[Nle]AKAEQMAEQAALNRLL[Nle]EEA-NH2), the “inhibition of the secretion of ACTH and β-END-LI” value (shortened to “inhibition”) is “inhibits the secretion of ACTH and β-END-LI”. As for `CCCC[C@H](NC(=O)[C@H](CC(C)C)NC(=O)[C@H](CC(C)C)NC(=O)[C@H](CCCNC(=N)N)NC(=O)[C@H](CC(N)=O)NC(=O)[C@H](C)NC(=O)[C@H](C)NC(=O)[C@H](C)NC(=O)[C@H](CCC(N)=O)NC(=O)[C@H](CCC(=O)O)NC(=O)[C@H](C)NC(=O)[C@H](CCC(=O)O)NC(=O)[C@H](CCC(N)=O)NC(=O)[C@H](CCC(=O)O)NC(=O)[C@H](C)NC(=O)[C@H](CCCCN)NC(=O)[C@H](C)NC(=O)[C@H](CCSC)NC(=O)[C@H](CCC(=O)O)NC(=O)[C@H](CC(C)C)NC(=O)[C@H](CCSC)NC(=O)[C@H](CCC(=O)O)NC(=O)[C@H](CCCNC(=N)N)NC(=O)[C@H](CC(C)C)NC(=O)[C@H](CC(C)C)NC(=O)[C@H](CCC(=O)O)NC(=O)[C@H](N)CC(C)C)C(=O)N[C@@H](CCC(=O)O)C(=O)N[C@@H](CCC(=O)O)C(=O)N[C@@H](C)C(N)=O` [XXV, [D-Leu^12, Glu^13, Ala^33, Nle^38]-AHC (12-41)] (H-[dL]ELLREMLEMAKAEQEAEQAAANRLL[Nle]EEA-NH2), the entry is “inhibits the secretion of ACTH and β-END-LI”; as for `CCCC[C@H](NC(=O)[C@H](CC(C)C)NC(=O)[C@H](CC(C)C)NC(=O)[C@H](CCCNC(=N)N)NC(=O)[C@H](CC(N)=O)NC(=O)[C@H](CC(C)C)NC(=O)[C@H](C)NC(=O)[C@H](C)NC(=O)[C@H](CCC(N)=O)NC(=O)[C@H](CCC(=O)O)NC(=O)[C@H](C)NC(=O)[C@H](C)NC(=O)[C@H](CCC(N)=O)NC(=O)[C@H](CCC(=O)O)NC(=O)[C@H](C)NC(=O)[C@H](CCCCN)NC(=O)[C@H](C)NC(=O)[C@H](CC(C)C)NC(=O)[C@H](CCC(=O)O)NC(=O)[C@H](CC(C)C)NC(=O)[C@H](CCCC)NC(=O)[C@H](CCC(=O)O)NC(=O)[C@H](CCCNC(=N)N)NC(=O)[C@H](CC(C)C)NC(=O)[C@H](CC(C)C)NC(=O)[C@H](Cc1c[nH]cn1)NC(=O)[C@@H](N)Cc1ccccc1)C(=O)N[C@@H](CCC(=O)O)C(=O)N[C@@H](CCC(=O)O)C(=O)N[C@@H](C)C(N)=O` [XXII, [Nle^18,38, Leu^21, Ala^27]-AHC (12-41)] (H-FHLLRE[Nle]LELAKAEQAAEQAALNRLL[Nle]EEA-NH2), “inhibits the secretion of ACTH and β-END-LI”.

For `CCCC[C@H](NC(=O)[C@H](CCCCN)NC(=O)[C@H](C)NC(=O)[C@H](CCSC)NC(=O)[C@H](CCC(=O)O)NC(=O)[C@H](C)NC(=O)[C@@H](NC(=O)[C@H](CCC(=O)O)NC(=O)[C@H](CCCNC(=N)N)NC(=O)[C@H](CC(C)C)NC(=O)[C@H](CC(C)C)NC(=O)[C@H](Cc1c[nH]cn1)NC(=O)[C@H](N)Cc1ccc(O)cc1)C(C)C)C(=O)N[C@@H](CCC(=O)O)C(=O)N[C@@H](CCC(N)=O)C(=O)N[C@@H](CCC)C(=O)N[C@@H](C)C(=O)N[C@@H](CCC(N)=O)C(=O)N[C@@H](CCC(N)=O)C(=O)N[C@@H](C)C(=O)N[C@@H](Cc1c[nH]cn1)C(=O)N[C@@H](CO)C(=O)N[C@@H](CC(N)=O)C(=O)N[C@@H](CCCNC(=N)N)C(=O)N[C@@H](CCCCN)C(=O)N[C@@H](CC(C)C)C(=O)N[C@@H](CCCC)C(=O)N[C@@H](CCC(=O)O)C(=O)N[C@@H](CCCC)C(=O)N[C@H](C(N)=O)[C@@H](C)CC` [XXX, [D-Tyr^12, Ala^19, Lys^23, Nle^24,38,40 Nva^27,]-hCRF(12-41)] (H-[dY]HLLREVAEMAK[Nle]EQ[Nva]AQQAHSNRKL[Nle]E[Nle]I-NH2), the “inhibition” value is “inhibits the secretion of ACTH and β-END-LI”. The entry for `CCCC[C@H](NC(=O)[C@H](CCC(=O)O)NC(=O)[C@H](CC(C)C)NC(=O)[C@@H](NC(=O)[C@H](CCC(=O)O)NC(=O)[C@H](CCCNC(=N)N)NC(=O)[C@H](CC(C)C)NC(=O)[C@H](CC(C)C)NC(=O)[C@H](Cc1c[nH]cn1)NC(=O)[C@H](Cc1ccccc1)NC(=O)[C@@H](NC(=O)[C@@H](N)CC(C)C)[C@@H](C)O)C(C)C)C(=O)N[C@@H](C)C(=O)N[C@@H](CCCNC(=N)N)C(=O)NCC(=O)N[C@@H](CCC(=O)O)C(=O)N[C@@H](CCC(N)=O)C(=O)N[C@@H](CC(C)C)C(=O)N[C@@H](C)C(=O)N[C@@H](CCC(N)=O)C(=O)N[C@@H](CCC(N)=O)C(=O)N[C@@H](C)C(=O)N[C@@H](Cc1ccc(O)cc1)C(=O)N[C@@H](CO)C(=O)N[C@@H](CC(N)=O)C(=O)N[C@@H](CCCNC(=N)N)C(=O)N[C@@H](CCCN)C(=O)N[C@@H](CC(C)C)C(=O)N[C@@H](CCCC)C(=O)N[C@@H](CCC(=O)O)C(=O)N[C@H](C(=O)N[C@H](C(N)=O)[C@@H](C)CC)[C@@H](C)CC` [XV, [Nle^21,38, Gly^24, Tyr^32, Orn^36]-hCRF (10-41)] (H-LTFHLLREVLE[Nle]ARGEQLAQQAYSNR[Orn]L[Nle]EII-NH2) is “inhibits the secretion of ACTH and β-END-LI”.

Take `CCCC[C@H](NC(=O)[C@H](CC(C)C)NC(=O)[C@H](CC(C)C)NC(=O)[C@H](CCCNC(=N)N)NC(=O)[C@H](CC(N)=O)NC(=O)[C@H](CC(C)C)NC(=O)[C@H](C)NC(=O)[C@H](C)NC(=O)[C@H](CCC(N)=O)NC(=O)[C@H](CCC(=O)O)NC(=O)[C@H](C)NC(=O)[C@H](CCC(=O)O)NC(=O)[C@H](CCCCN)NC(=O)[C@H](CCC(=O)O)NC(=O)[C@H](C)NC(=O)[C@H](CCCCN)NC(=O)[C@H](CCC(=O)O)NC(=O)[C@H](CCSC)NC(=O)[C@H](CCC(=O)O)NC(=O)[C@H](CC(C)C)NC(=O)[C@H](CCSC)NC(=O)[C@H](CCC(=O)O)NC(=O)[C@H](CCCNC(=N)N)NC(=O)[C@H](CC(C)C)NC(=O)[C@H](CC(C)C)NC(=O)[C@H](CCC(=O)O)NC(=O)[C@@H](N)CC(C)C)C(=O)N[C@@H](CCC(=O)O)C(=O)N[C@@H](CCC(=O)O)C(=O)N[C@@H](C)C(N)=O` [XXIII, [Leu^12, Glu^13,22, Lys^26, Nle^38]-AHC (12-41)] (H-LELLREMLEMEKAEKEAEQAALNRLL[Nle]EEA-NH2): the “inhibition” value was “inhibits the secretion of ACTH and β-END-LI”. As for `CCCC[C@H](NC(=O)[C@H](CC(C)C)NC(=O)[C@H](CCCCN)NC(=O)[C@H](CCCNC(=N)N)NC(=O)[C@H](CC(N)=O)NC(=O)[C@H](CO)NC(=O)[C@H](Cc1c[nH]cn1)NC(=O)[C@H](C)NC(=O)[C@H](CCC(N)=O)NC(=O)[C@H](CCC(N)=O)NC(=O)[C@H](C)NC(=O)[C@H](CC(C)C)NC(=O)[C@H](CCC(N)=O)NC(=O)[C@H](CCC(=O)O)NC(=O)[C@H](C)NC(=O)[C@H](CCCNC(=N)N)NC(=O)[C@H](C)NC(=O)[C@H](CCSC)NC(=O)[C@H](CCC(=O)O)NC(=O)CNC(=O)[C@@H](NC(=O)[C@H](CCC(=O)O)NC(=O)[C@H](CCCNC(=N)N)NC(=O)[C@H](CC(C)C)NC(=O)[C@H](CC(C)C)NC(=O)[C@H](Cc1c[nH]cn1)NC(=O)[C@H](Cc1ccccc1)NC(=O)[C@@H](NC(=O)[C@H](CC(C)C)NC(=O)[C@H](CC(=O)O)NC(C)=O)[C@@H](C)O)C(C)C)C(=O)N[C@@H](CC(=O)O)C(=O)N[C@@H](CCC)C(=O)N[C@H](C(N)=O)[C@@H](C)CC` [XIII, [Acetyl-Asp^9, Gly^19, Nle^38, Asp^39, Nva^40]-hCRF(9-41)] (Ac-DLTFHLLREVGEMARAEQLAQQAHSNRKL[Nle]D[Nva]I-NH2), the entry is “inhibits the secretion of ACTH and β-END-LI”; as for `CCCC[C@H](NC(=O)[C@H](CCC(=O)O)NC(=O)[C@@H](NC(=O)[C@H](CCCC)NC(=O)[C@H](CC(N)=O)NC(=O)[C@H](CCCNC(=N)N)NC(=O)[C@H](CC(C)C)NC(=O)[C@H](CC(C)C)NC(=O)[C@H](Cc1c[nH]cn1)NC(=O)[C@@H](N)Cc1ccccc1)[C@@H](C)CC)C(=O)N[C@@H](C)C(=O)N[C@@H](CCCNC(=N)N)C(=O)N[C@@H](CC(N)=O)C(=O)N[C@@H](CCC(=O)O)C(=O)N[C@@H](CC(N)=O)C(=O)N[C@@H](CCC(N)=O)C(=O)N[C@@H](CCCNC(=N)N)C(=O)N[C@@H](CCC(=O)O)C(=O)N[C@@H](CCC(N)=O)C(=O)N[C@@H](C)C(=O)NCC(=O)N[C@@H](CC(C)C)C(=O)N[C@@H](CC(N)=O)C(=O)N[C@@H](CCCNC(=N)N)C(=O)N[C@@H](CCCCN)C(=O)N[C@@H](Cc1ccc(O)cc1)C(=O)N[C@@H](CCCC)C(=O)N[C@@H](CC(=O)O)C(=O)N[C@@H](CCC(=O)O)C(=O)N[C@H](C(N)=O)C(C)C` [VIII, [Nle^18,21,38]-Carp Urotensin I(12-41)] (H-FHLLRN[Nle]IE[Nle]ARNENQREQAGLNRKY[Nle]DEV-NH2), “inhibits the secretion of ACTH and β-END-LI”.
